Assay results published in patent publication US20240262844A1, “PYRIDINIUM SALTS AND METHODS OF USE” (UNIVERSITY OF WYOMING, priority 2023, published 2024).
Counter-ions that a name gives are not always drawn.

Tests used:
Leuprolide (1.2 kDa) = experiment: Photochemical labeling of leuprolide (LC/MS); assay type: biochemical; conditions: 10 μM leuprolide, 100 μM pyridinium salt, 300 μM glutathione, 20 mM NH4OAc pH 6.9, 427 nm, 30 minutes
Description: (§1) General Procedure B: Photochemical Irradiation of Peptides and Proteins: To a 2 mL Pyrex LC/MS vial (Thermo model #03-391-39) were sequentially added solutions containing the desired biomolecule, glutathione (GSH), pyridinium salt, and ammonium acetate (NH4OAc). The resulting solution was diluted to a final volume of 500 μL and then sparged using nitrogen for a minimum of 30 minutes prior to irradiation. The actively sparging solution was then placed in an EvoluChem™ PhotoRedOx Box photoreactor that was equipped with a Kessil, PR160 427 nm LED Lamp and was then irradiated (100% lamp intensity) for the designated time at room temperature while maintaining active sparging. The resultant reaction mixture was then analyzed directly by LC/MS. Analysis of labeling outcomes using LC/MS was performed either by extracted ion chromatogram intensities (method A) or by integrating the area under the peaks associated with peptide content (method B). These values were totaled, and estimated percentages were assigned according to relative intensities of peaks or ion counts.
Labeling of Leuprolide with Pyridinium Salt 2a (Leuprolide-2a Conjugate). […] The reaction mixture was analyzed directly by LC/MS using method B and was estimated to have proceeded with 91% conversion, a >20:1 mono:di labeled ratio, and 4% of +1 label+glutathionylation. […]

[1] = molecular target: T1, chymotrypsinogen (25 kDa) (Bos taurus, UniProt P00766); experiment: Photochemical labeling of chymotrypsinogen (LC/MS, MS-MS); assay type: biochemical, bovine; conditions: digestion/MS-MS
T1 construct: α-Chymotrypsinogen A from bovine pancreas; purchased Sigma Aldrich; host or cells: bovine pancreas
Description: as §1
Labeling of Chymotrypsinogen with pyridinium salt 2a (Chymotrypsinogen-2a Conjugate). […] The reaction mixture was directly analyzed by LC/MS using method A and was estimated to have proceeded with 90% conversion with a 20.7:8.3:1 mono:di:tri labeled ratio and 4% glutathionylation of all unlabeled and labeled protein content. […]

[2] = Stern-Volmer fluorescence quenching analysis; assay type: physicochemical; conditions: 100 μM pyridinium salt in 20 mM NH4OAc pH 6.9, increasing NATA, 375 nm excitation
Description: FIG. 7 is a Stern-Volmer plot of florescence quenching of pyridinium salt 2a with a small molecule tryptophan analog N-acetyltryptophanamide (NATA) according to at least one embodiment of the present disclosure. The Stern-Volmer plot was generated by excitation of a 100 μM solution of pyridinium salt 2a in 20 mM NH4OAc pH 6.9 in the presence of increasing concentrations of NATA. Analyses were performed at 375 nm excitation. The calculated Kq, assuming 11 (0.2548 ns) quenching, was determined to be about 1.019E5 M^−1s^−1. The calculated Kq, assuming τ2 (3.399 ns) quenching, was determined to be about 7.638E3 M^−1s^−1.

**Q.** Which conversion (Leuprolide (1.2 kDa)) does the source give for COC(=O)N(C)[n+]1c(C)cc(-c2ccc3cc(OC)ccc3c2)cc1C [Pyridinium salt 2a, 1-((methoxycarbonyl)(methyl)amino)-4-(6-methoxynapthalen-2-yl)-2,6-dimethylpyridin-1-ium tetrafluoroborate] here?
**A.** 91%

**Q.** And the “detectable locations of labeling” value [1]?
**A.** Trp-215 and Trp-237

**Q.** What about the “calculated Kq, assuming τ1 (0.2548 ns) quenching” value [2] of the same compound?
**A.** about 1.019E5 M^−1s^−1

**Q.** And the “calculated Kq, assuming τ2 (3.399 ns) quenching” value [2]?
**A.** about 7.638E3 M^−1s^−1
